Measurements from ChEMBL document CHEMBL1126333, “Conversion of NSAIDS into balanced dual inhibitors of cyclooxygenase and 5-lipoxygenase” (Bioorg Med Chem Lett, 1992).

Tests used:
[1] = biological target: Cyclooxygenase (Rattus norvegicus) (UniProt P35355+Q63921); assay: In vitro inhibitory activity against Cyclooxygenase was determined at 16 uM; format: protein assay
[2] = biological target: T1, Polyunsaturated fatty acid 5-lipoxygenase (Rattus norvegicus) (UniProt P12527); assay: In vitro inhibitory activity against 5-lipoxygenase was determined at 16 uM
T1 sequence (whole entry): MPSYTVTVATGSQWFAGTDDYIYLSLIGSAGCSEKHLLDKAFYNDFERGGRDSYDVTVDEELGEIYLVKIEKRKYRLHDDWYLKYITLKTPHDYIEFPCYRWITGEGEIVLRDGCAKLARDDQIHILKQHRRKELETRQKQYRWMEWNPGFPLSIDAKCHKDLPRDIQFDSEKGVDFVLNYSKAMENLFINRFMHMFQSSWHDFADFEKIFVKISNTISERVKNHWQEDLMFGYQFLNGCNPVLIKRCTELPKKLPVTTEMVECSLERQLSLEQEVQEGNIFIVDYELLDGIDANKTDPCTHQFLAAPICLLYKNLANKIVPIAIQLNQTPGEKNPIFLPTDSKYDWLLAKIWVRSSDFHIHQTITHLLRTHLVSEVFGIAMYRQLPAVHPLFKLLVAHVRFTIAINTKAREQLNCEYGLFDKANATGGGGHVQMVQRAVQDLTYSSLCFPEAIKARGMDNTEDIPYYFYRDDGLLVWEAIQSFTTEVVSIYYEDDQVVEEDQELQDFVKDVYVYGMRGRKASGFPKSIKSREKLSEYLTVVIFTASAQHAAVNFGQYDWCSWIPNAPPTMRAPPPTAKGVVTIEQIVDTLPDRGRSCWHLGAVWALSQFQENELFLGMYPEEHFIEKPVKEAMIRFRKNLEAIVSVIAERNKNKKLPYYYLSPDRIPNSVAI

[3] = biological target: T2, Cyclooxygenase (Rattus norvegicus, UniProt P35355+Q63921); assay: In vitro inhibitory activity against Cyclooxygenase was determined; format: protein assay
T2 sequence (P35355 whole entry): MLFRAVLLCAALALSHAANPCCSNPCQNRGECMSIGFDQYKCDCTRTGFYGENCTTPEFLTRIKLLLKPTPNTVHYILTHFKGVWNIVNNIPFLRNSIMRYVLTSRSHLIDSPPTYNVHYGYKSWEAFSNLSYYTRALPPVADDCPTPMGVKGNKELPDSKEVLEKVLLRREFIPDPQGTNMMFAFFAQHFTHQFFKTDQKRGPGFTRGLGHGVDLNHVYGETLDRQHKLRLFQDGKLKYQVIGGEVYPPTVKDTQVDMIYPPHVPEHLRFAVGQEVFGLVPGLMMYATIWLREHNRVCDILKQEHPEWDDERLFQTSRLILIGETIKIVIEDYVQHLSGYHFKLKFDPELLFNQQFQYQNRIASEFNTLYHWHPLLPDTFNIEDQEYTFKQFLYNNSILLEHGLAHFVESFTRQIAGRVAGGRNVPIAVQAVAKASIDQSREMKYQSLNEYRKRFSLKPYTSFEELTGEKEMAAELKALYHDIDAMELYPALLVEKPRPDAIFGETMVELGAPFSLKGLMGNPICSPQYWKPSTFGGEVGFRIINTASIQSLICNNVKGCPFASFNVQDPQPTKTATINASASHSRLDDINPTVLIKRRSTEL
T2 sequence (Q63921 whole entry): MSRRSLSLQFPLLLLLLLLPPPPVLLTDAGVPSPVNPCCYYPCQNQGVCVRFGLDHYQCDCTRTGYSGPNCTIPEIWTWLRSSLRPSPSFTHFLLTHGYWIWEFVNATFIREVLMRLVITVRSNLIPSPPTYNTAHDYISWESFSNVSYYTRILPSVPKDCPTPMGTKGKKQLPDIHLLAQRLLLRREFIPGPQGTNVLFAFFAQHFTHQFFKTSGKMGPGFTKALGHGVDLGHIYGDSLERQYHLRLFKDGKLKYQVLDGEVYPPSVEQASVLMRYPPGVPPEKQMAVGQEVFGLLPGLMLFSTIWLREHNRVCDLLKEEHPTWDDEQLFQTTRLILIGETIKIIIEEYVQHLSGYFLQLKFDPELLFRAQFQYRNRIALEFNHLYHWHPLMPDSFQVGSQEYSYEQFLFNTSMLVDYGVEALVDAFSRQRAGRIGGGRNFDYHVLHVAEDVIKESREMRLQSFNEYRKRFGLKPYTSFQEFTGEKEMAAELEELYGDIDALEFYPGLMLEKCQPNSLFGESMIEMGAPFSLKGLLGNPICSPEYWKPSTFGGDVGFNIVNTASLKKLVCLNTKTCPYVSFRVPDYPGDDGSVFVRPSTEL

[4] = biological target: T3, Polyunsaturated fatty acid 5-lipoxygenase (Rattus norvegicus, UniProt P12527); assay: In vitro inhibitory activity against 5-lipoxygenase was determined
T3 sequence (P12527 whole entry): T1 sequence (whole entry)

Compound | inhibition [1] | inhibition [2] | IC50 [3] | IC50 [4]
Cc1ccc(Cl)c(Nc2ccccc2-c2nnc(S)o2)c1Cl |  |  | 700 nM | 
FC(F)(F)c1cccc(Nc2ncccc2-c2nnc(S)o2)c1 |  |  | 190 nM | 990 nM
Cc1ccc(Cl)c(Nc2ccccc2-c2nnc(S)s2)c1Cl |  |  | 1750 nM | 
FC(F)(F)c1cccc(Nc2ccccc2-c2n[nH]c(=S)s2)c1 |  |  | 850 nM | 
FC(F)(F)c1cccc(Nc2ccccc2-c2n[nH]c(=S)o2)c1 |  |  | 270 nM | 

The next lines start with results.

inhibition [1] | inhibition [2] | Compound | IC50 [3] | IC50 [4]
< 40% | < 40% | Cc1ccc(Cl)c(Nc2ccccc2-c2nnc(O)o2)c1Cl |  | 
< 40% | 100% | Oc1nnc(-c2ccccc2Nc2cccc(C(F)(F)F)c2)s1 |  | 
< 40% | < 40% | Cc1cccc(Nc2ccccc2-c2nnc(O)o2)c1C |  | 
